# Source: US20230201244A1, “COMPOSITIONS AND METHODS FOR PREVENTING AND/OR TREATING MICROBIAL INFECTIONS” (University of Louisville Research Foundation, Inc., priority 2020, published 2023)
# Tests used:
# [1] = system: lung epithelial cells (EpCAM^+); assay: Lung apoptosis in mice given exosomes^Nsp12Nsp13 (TUNEL, Annexin V flow cytometry of EpCAM+ cells); type: in vivo, C57BL/6 mice; details: inhibitor pretreatment
# [2] = system: NF-κB (p65); type: in vivo, C57BL/6 mice; details: inhibitor daily for three days at 5 mg/kg/d before intratracheal exosomes
# [3] = system: lung epithelial A549 cells; assay: Apoptosis of A549 cells by flow cytometry (Annexin V/7-AAD); type: cell-based, human
# [4] = system: TNFα, IL-1β and IL-6; assay: ELISA of inflammatory cytokines in lung or lung macrophages of mice given exosomes^Nsp12Nsp13; type: in vivo, C57BL/6 mice; details: lung macrophages, TNFα and IL-6 ELISA, i.p. pretreatment, FIG. 10B
smiles,measurement,setting,value
Cc1ccc(S(=O)(=O)/C=C/C#N)cc1 [Bay 11-7821],induction of lung epithelial cell (EpCAM+) apoptosis,"[1]; Annexin V flow cytometry, FIG. 5E",blocked
same,lung apoptosis induced by exosomes^Nsp12Nsp13 (TUNEL staining),"[1]; lung sections, FIG. 5D",reduced
same,lung macrophage NF-κB activity induced by exosomes^Nsp12Nsp13,[2],inhibited
same,A549 cell apoptosis on direct exposure,"[3]; A549 cells presented to Nsp12/13, Bay 11-7821, FIG. 5F top panel",little influence
same,apoptosis of lung epithelial cells induced by supernatant from U937 cells treated with exosomes^Nsp12Nsp13,"[3]; A549 cells, antibodies 10 ng/ml, FIG. 5F middle and bottom panel",inhibited
same,inflammatory cytokines induced by exosomes^Nsp12Nsp13,[4],attenuation of inflammatory cytokines
